From ChEMBL document CHEMBL1201862, “PubChem BioAssay data set” (2004)
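Grown in 96-well plates, cells were treated for 48 hours with each compound at five concentrations. Insufficient inhibition: endpoint recorded as highest concentration tested. GI50 = concentration required for 50% inhibition of growth.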 The source made the active and inactive calls. No stated cut-off is given here; in the data, active = GI50 up to about 1.1 µM and inactive = higher.

Assays:
Assay in all cases: NCI anticancer screen, dose series, 48 h
786-0 = test system: 786-0
CCRF-CEM = test system: CCRF-CEM
COLO 205 = test system: COLO 205
EKVX = test system: EKVX
HCC 2998 = test system: HCC 2998
HCT-116 = test system: HCT-116
HCT-15 = test system: HCT-15
HOP-62 = test system: HOP-62
MDA-MB-231 = test system: MDA-MB-231
MDA-MB-435 = test system: MDA-MB-435
MDA-N = test system: MDA-N
NCI-H460 = test system: NCI-H460
NCI/ADR-RES = test system: NCI/ADR-RES
OVCAR-3 = test system: OVCAR-3
OVCAR-8 = test system: OVCAR-8
SF-539 = test system: SF-539
SK-MEL-5 = test system: SK-MEL-5
SN12C = test system: SN12C
UACC-257 = test system: UACC-257
UO-31 = test system: UO-31

Row | Structure (SMILES) | GI50 (786-0) | GI50 (CCRF-CEM) | GI50 (COLO 205) | GI50 (EKVX) | GI50 (HCC 2998) | GI50 (HCT-116) | GI50 (HCT-15) | GI50 (HOP-62) | GI50 (MDA-MB-231) | GI50 (MDA-MB-435) | GI50 (MDA-N) | GI50 (NCI-H460) | GI50 (NCI/ADR-RES) | GI50 (OVCAR-3) | GI50 (OVCAR-8) | GI50 (SF-539) | GI50 (SK-MEL-5) | GI50 (SN12C) | GI50 (UACC-257) | GI50 (UO-31)
1 | c1ccc(-c2cccc(-c3ccccn3)n2)nc1 [TERPYRIDINE] | 0.368 µM (active) | 0.249 µM (active) | 0.254 µM (active) | 0.476 µM (active) | 0.298 µM (active) | 0.344 µM (active) | 0.407 µM | 0.52 µM (active) | 0.397 µM (active) | 0.483 µM (active) | 0.441 µM (active) | 0.382 µM (active) | 0.321 µM (active) | 0.316 µM (active) | 0.453 µM (active) | 0.51 µM (active) | 0.246 µM (active) | 0.631 µM (active) | 0.425 µM (active) | 0.197 µM (active)
2 | CCCc1cc(=O)oc2c(C=O)c(O)cc(O)c12 | 30.1 µM (inactive) | 22.8 µM (inactive) | 17.7 µM (inactive) | 21.3 µM (inactive) | 16.7 µM (inactive) | 21.8 µM (inactive) | 26.4 µM | 22.3 µM (inactive) | 17.5 µM (inactive) | 21.8 µM (inactive) | 22.3 µM (inactive) | 24.8 µM (inactive) | 27.4 µM (inactive) | 18.7 µM (inactive) | 22 µM (inactive) | 26.7 µM (inactive) | 17.4 µM (inactive) | 24.9 µM (inactive) | 24.6 µM (inactive) | 22.8 µM (inactive)
3 | C=Cc1nc2nnc(CCCCCCCCc3nnc4nc(C=C)[nH]n34)n2[nH]1 | 80.9 µM (inactive) | > 100 µM (inactive) | > 100 µM (inactive) | 61.5 µM (inactive) | 75.3 µM (inactive) | 47.2 µM (inactive) | > 100 µM | > 100 µM (inactive) | 95.5 µM (inactive) | > 100 µM (inactive) | > 100 µM (inactive) | 57.8 µM (inactive) | 63.1 µM (inactive) | > 100 µM (inactive) | 83.8 µM (inactive) | > 100 µM (inactive) | 41.6 µM (inactive) | > 100 µM (inactive) | 31.4 µM (inactive) | > 100 µM (inactive)
4 | Clc1cccc(Cl)c1C1SCc2nc3ncccc3n21 (stereo not given) | > 100 µM (inactive) | 92.3 µM (inactive) | > 100 µM (inactive) | > 100 µM (inactive) | > 100 µM (inactive) | 94.6 µM (inactive) | > 100 µM | > 100 µM (inactive) | 19 µM (inactive) | 39.4 µM (inactive) | 62.8 µM (inactive) | > 100 µM (inactive) | > 100 µM (inactive) | 44.1 µM (inactive) | > 100 µM (inactive) | > 100 µM (inactive) | 65.8 µM (inactive) | > 100 µM (inactive) | > 100 µM (inactive) | > 100 µM (inactive)
5 | CC1OC(OC2C(O)C(O)C(O)C(O)C2O)C(N)CC1NC(=N)C(=O)O (stereo not given) | > 100 µM (inactive) | > 100 µM (inactive) | > 100 µM (inactive) | > 100 µM (inactive) | > 100 µM (inactive) | > 100 µM (inactive) | > 100 µM | > 100 µM (inactive) | > 100 µM (inactive) | > 100 µM (inactive) | > 100 µM (inactive) | > 100 µM (inactive) | > 100 µM (inactive) | > 100 µM (inactive) | > 100 µM (inactive) | > 100 µM (inactive) | > 100 µM (inactive) | > 100 µM (inactive) | > 100 µM (inactive) | > 100 µM (inactive)
6 | O=c1c2ccccc2n2nnc3ccc(NCCNCCO)c1c32 | 1.02 µM (active) | 0.948 µM (active) | 0.946 µM (active) | 2.08 µM (inactive) | 1.51 µM (inactive) | 1.29 µM (inactive) | 2.03 µM | 2.08 µM (inactive) | 2.85 µM (inactive) | 1.34 µM (inactive) | 1.69 µM (inactive) | 0.679 µM (active) | 1.08 µM (active) | 1.7 µM (inactive) | 0.908 µM (active) | 3.78 µM (inactive) | 1.53 µM (inactive) | 1.43 µM (inactive) | 3.32 µM (inactive) | 0.863 µM (active)
7 | O=S1(=O)c2ccccc2C(=NO)c2ccccc21 | > 100 µM (inactive) | 47.1 µM (inactive) | > 100 µM (inactive) | 35.3 µM (inactive) | > 100 µM (inactive) | > 100 µM (inactive) | > 100 µM | > 100 µM (inactive) | > 100 µM (inactive) | > 100 µM (inactive) | > 100 µM (inactive) | > 100 µM (inactive) | 57.3 µM (inactive) | 39.7 µM (inactive) | > 100 µM (inactive) | > 100 µM (inactive) | 70.3 µM (inactive) | 92.9 µM (inactive) | > 100 µM (inactive) | 28.2 µM (inactive)
8 | C[n+]1[n-]o/c(=N\N=O)c1-c1cc(-c2/c(=N/N=O)o[n-][n+]2C)cc(-c2/c(=N\N=O)o[n-][n+]2C)c1 | > 100 µM (inactive) | > 100 µM (inactive) | > 100 µM (inactive) | > 100 µM (inactive) | > 100 µM (inactive) | > 100 µM (inactive) | > 100 µM | > 100 µM (inactive) | > 100 µM (inactive) | > 100 µM (inactive) | > 100 µM (inactive) | > 100 µM (inactive) | > 100 µM (inactive) | > 100 µM (inactive) | > 100 µM (inactive) | > 100 µM (inactive) | > 100 µM (inactive) | > 100 µM (inactive) | > 100 µM (inactive) | > 100 µM (inactive)
9 | Cn1c(=O)c2c(nc(N)n2C2OC(CO)C(O)C2O)n(C)c1=O (stereo not given) | > 100 µM (inactive) | > 100 µM (inactive) | > 100 µM (inactive) | > 100 µM (inactive) | > 100 µM (inactive) | > 100 µM (inactive) | > 100 µM | > 100 µM (inactive) | > 100 µM (inactive) | > 100 µM (inactive) | > 100 µM (inactive) | > 100 µM (inactive) | > 100 µM (inactive) | > 100 µM (inactive) | > 100 µM (inactive) | > 100 µM (inactive) | > 100 µM (inactive) | > 100 µM (inactive) | > 100 µM (inactive) | > 100 µM (inactive)
10 | O=C(/C=C/c1ccc(-c2ccccc2)cc1)NCc1ccc(C(=O)NCc2ccccc2)cc1 | > 100 µM (inactive) | > 100 µM (inactive) | > 100 µM (inactive) | > 100 µM (inactive) | > 100 µM (inactive) | > 100 µM (inactive) | > 100 µM | 57.1 µM (inactive) | > 100 µM (inactive) | > 100 µM (inactive) | > 100 µM (inactive) | > 100 µM (inactive) | > 100 µM (inactive) | > 100 µM (inactive) | > 100 µM (inactive) | > 100 µM (inactive) | > 100 µM (inactive) | > 100 µM (inactive) | > 100 µM (inactive) | > 100 µM (inactive)
